Measured values: patent US20230331707A1, “PROGRAMMED CELL NECROSIS INHIBITOR, PREPARATION METHOD THEREFOR, AND USE THEREOF” (Shanghai Institute of Organic Chemistry, Chinese Academy of …, priority 2020, published 2023)
Like-named read-outs stand apart in the source and are kept apart here.

How the values were obtained:
[1] = system: FADD−/− Jurkat cells; experiment: Inhibition of TNF-induced programmed necrosis of FADD deficient Jurkat cells (Cell Titer-Glo viability); type: cell-based; conditions: FADD−/− Jurkat cells
Description: (§1) The adopted biological assay protocol was: the effect of compounds on programmed necroptosis of TNF-induced FADD (Fas-Associated Death Domain) deficient Jurkat cells and L929 cells.
(§2) In order to verify the inhibitory effect of the compounds of the present invention on programmed cell necrosis at the cellular level, cell types that is closely related to the RIP1 pathway, namely FADD deficient Jurkat cells (human peripheral blood leukemia T cell strain) and L929 cells, were selected. Two different stimulation methods were used: tumor necrosis factor (TNFα) was used alone, or TNFα was used in combination with mitochondria-derived cysteine aspartate activator (SMAC) SM164. Cells viability was calculated by detecting chemiluminescence values, thereby obtaining the biological activity of the compound on the inhibition of programmed cell necrosis.
(§3) Methods: FADD deficient Jurkat cells: FADD deficient Jurkat cells (human peripheral blood leukemia T cell line) were cultured in vitro. After growing to the logarithmic growth phase, the cells were collected, centrifuged at 1000 rpm for 5 min, the supernatant was discarded, and the cell concentration was adjusted to 2.5×10^5/mL. Cells were seeded into 384-well plates, 40 μl per well. 5 μL of SM164 (50 nM) diluted in cell culture medium and 5 μL of each compound were added to the corresponding wells. After pretreatment at 37° C. for 1 h, 5 μL of TNFα (50 ng/mL) diluted in cell culture medium was added to each well of the stimulation group, and 5 μL of the culture medium was added to the control group. The plate was cultured in a cell incubator (37° C., 5% CO2) for 14 h, and […] of Cell Titer-Glo solution was added to each well, then incubated for 30 min at room temperature, and intracellular ATP level was measured by detecting luminescence. The unstimulated DMSO control wells were taken as 100% cell viability. L929 cells: The L929 cells (mouse fibroblasts) were cultured in vitro, digested and diluted to 6.25×10^4/ml, and the cells were seeded into 384-well plates, 40 μl per well. The plate was placed in a cell incubator (37° C., 5% CO2) for 12 hours. 5 μL of SM164 (500 nM) diluted in cell culture medium and 5 μL of each compound were added to the corresponding wells. After pretreatment at 37° C. for 1 h, 5 μL of TNFα (500 ng/mL) diluted in cell culture medium was added to each well of the stimulation group, and 5 μL of the culture medium was added to the control group. After the plate was cultured for 14 h in a cell incubator (37° C., 5% CO2), 15 μl of Cell Titer-Glo solution was added to each well. The plate was incubated at room temperature for 30 min, and intracellular ATP level was measured by detecting luminescence. The unstimulated DMSO control wells were taken as 100% cell viability. EC50 values of the compounds were calculated using Prism Graphpad statistical software.

[2] = system: L929 cells; experiment: Inhibition of TNF-induced programmed necrosis of L929 cells (Cell Titer-Glo viability); type: cell-based, mouse
Description: as §1, §2, §3

[3] = Liver microsomal stability test, mouse; type: in vitro ADME; conditions: mouse liver microsomes, NADPH, 37° C.; for half-life at 1 µM: mouse, liver microsomes, read-out: T1/2 (min) Mouse
Description: (§4) The adopted biological test protocol was: testing the half-life of the compound in human- or mouse-derived liver microsomes.
(§5) Liver microsomes contain many enzymes involved in drug metabolism, especially cytochrome P-450, and therefore it is one of the major tissues involved in drug metabolism in living organisms. There are some correlations between the stability of the compound in liver microsomes and the pharmacogenetic stability thereof in vivo. Therefore, the relative stability of compounds in vivo can be roughly predicted by testing the half-life of different compounds in human- or mouse-derived liver microsomes. The specific methods were as follows:
(§6) Methods: 0.75 μL of 0.5 mM samples (compounds to be tested and control verapamil), 9.38 μL of 20 mg/mL liver microsomes (Human and Mouse) were taken and added to 239.88 μL PBS (on ice), and divided into 30 μL/tube samples respectively. The samples were incubated at 37° C. in a constant temperature water bath for 5 min, and then all samples were taken out. At zero-time, control group was added with 90 μL of ice acetonitrile first, and then added with 15 μL of 3 mM NADPH solution sequentially, and incubated at 37° C. in a constant temperature water bath. The corresponding samples were taken out after 5 min, 10 min, 20 min, 30 min and 60 min, respectively, and quenched by adding 90 μL of ice acetonitrile. All samples were centrifuged at 10000 rpm for 10 min, and the supernatants were taken and placed in a liquid phase vial waiting for LC-MS analysis.

[4] = Liver microsomal stability test, human; type: in vitro ADME; conditions: human liver microsomes, NADPH, 37° C.; for half-life at 1 µM: human, liver microsomes, read-out: T1/2 (min) Human
Description: as §4, §5, §6

[5] = Homo sapiens, Jurkat, 14 h, stimulated with TNFα + SM164, read-out: EC50 (μM) FADD−/− Jurkat cells (human) TNFα + SM164
[6] = Homo sapiens, Jurkat, stimulated with TNFα alone, read-out: EC50 (μM) FADD−/− Jurkat cells (human) TNFα
[7] = Mus musculus, L929, L929 cells, stimulated with TNFα + SM164, read-out: EC50 (μM) L929 cells (mouse) TNFα + SM164
[8] = Mus musculus, L929, L929 cells, stimulated with TNFα alone, read-out: EC50 (μM) L929 cells (mouse) TNFα
[9] = stimulated with TNFα + SM164, read-out: EC50 (μM) FADD−/− Jurkat cells (human) TNFα + SM164
[10] = L929 cells, stimulated with TNFα + SM164, read-out: EC50 (μM) L929 cells (mouse) TNFα + SM164
[11] = L929 cells, stimulated with TNFα alone, read-out: EC50 (μM) L929 cells (mouse) TNFα

SMILES	EC50 [1, 5]	EC50 [1, 6]	EC50 [2, 7]	EC50 [2, 8]	half-life at 1 µM [3]	half-life at 1 µM [4]	EC50 [1, 9]	EC50 ([1]; stimulated with TNFα alone, read-out: EC50 (μM) FADD−/− Jurkat cells (human) TNFα)	EC50 [2, 10]	EC50 [2, 11]	T1/2 (min) Mouse [3]	T1/2 (min) Human [4]
CNC(=O)c1ccc2c(c1)ncn2-c1ccc(CNC(=O)c2cc(Cc3ccccc3)on2)cc1 [QY-6-16, 5-Benzyl-N-(4-(5-(methylcarbamoyl)-1H-benzo[d]imidazol-1-yl)benzyl) isoxazol-3-formamide]	113 nM	8.1 nM	3.35 µM	2.14 µM	24.8 min	21.7 min	–	–	–	–	–	–
CNC(=O)c1ccc2c(c1)ncn2-c1ccc(CNC(=O)c2noc(Cc3ccccc3)n2)cc1 [QY-7-14, 5-Benzyl-N-(4-(5-(methylcarbamoyl)-1H-benzo[d]imidazol-1-yl)benzyl)-1,2,4-oxadiazol-3-carboxamide]	180 nM	24.3 nM	4.74 µM	0.962 µM	77 min	13.9 min	–	–	–	–	–	–
CNC(=O)c1ccc2c(c1)ncn2-c1ccc(CN2CCc3cn(Cc4ccccc4)nc3C2=O)cc1 [QY-8-7]	37.8 nM	10.8 nM	> 10 µM	3 µM	12.2 min	46.2 min	–	–	–	–	–	–
Cn1nc(C(=O)NCc2ccc(-n3cnc4c(N)ncnc43)cc2)cc1Cc1ccccc1 [QY-8-43, N-(4-(6-amino-9H-purin-9-yl)benzyl)-5-benzyl-1-methyl-1H-pyrazole-3-carboxamide]	–	–	–	–	23.9 min	38.5 min	17.7 nM	2.85 nM	0.152 µM	0.0111 µM	–	–
CCn1nc(C(=O)NCc2ccc(-n3ccc4c(N)ncnc43)cc2)cc1Cc1ccccc1 [QY-9-33]	1040 nM	3.77 nM	> 10 µM	> 10 µM	11.2 min	9.6 min	–	–	–	–	–	–
CCn1nc(C(=O)NCc2ccc(-n3cnc4c(N)ncnc43)cc2)cc1Cc1ccccc1 [QY-9-34]	3.52 nM	0.416 nM	> 10 µM	8.36 µM	13.9 min	14.7 min	–	–	–	–	–	–
Nc1ncnc2c1ccn2-c1ccc(CN2CCc3cn(Cc4ccccc4)nc3C2=O)cc1 [QY-9-41]	234 nM	21.5 nM	> 10 µM	> 10 µM	36.5 min	38.5 min	–	–	–	–	–	–
Nc1ncnc2c1ncn2-c1ccc(CN2CCc3cn(Cc4ccccc4)nc3C2=O)cc1 [QY-9-50]	12.1 nM	0.191 nM	2.73 µM	1.39 µM	116 min	86.6 min	–	–	–	–	–	–
Cn1ncc(C(=O)NCc2ccc(-n3ccc4c(N)ncnc43)cc2)c1Cc1ccccc1 [QY-10-39, N-(4-(4-amino-7H-pyrrolo[2,3-d]pyrimidine-7-yl)benzyl)-5-benzyl-1-methyl-1H-pyrazole-4-carboxamide]	2.95 nM	0.07 nM	0.0961 µM	0.01 µM	25.7 min	–	–	–	–	–	–	–
Cn1ncc(C(=O)NCc2ccc(-n3cnc4cc(C(=O)NCCN5CCOCC5)ccc43)cc2)c1Cc1ccccc1 [QY-11-68B]	2.96 nM	0.696 nM	0.0834 µM	0.0205 µM	34.7 min	–	–	–	–	–	–	–
CN1CCN(CCNC(=O)c2ccc3c(c2)ncn3-c2ccc(CNC(=O)c3cnn(C)c3Cc3ccccc3)cc2)CC1 [QY-11-69B]	6.33 nM	0.984 nM	0.00108 µM	0.000563 µM	46.2 min	43.3 min	–	–	–	–	–	–
Cn1ncc(C(=O)NCc2ccc(-n3cnc4c(N)ncnc43)cc2)c1Cc1ccccc1 [QY-11-78]	–	0.036 nM	–	–	–	–	0.689 nM	–	0.0232 µM	0.00987 µM	23.9 min	12.6 min
CCn1nc(C(=O)NCc2ccc(-n3cnc4cc(C(=O)NC)ccc43)cc2)cc1Cc1ccccc1 [XHJ-4-36]	42.8 nM	5.91 nM	> 10 µM	0.0107 µM	10.7 min	46.2 min	–	–	–	–	–	–
CNC(=O)c1ccc2c(c1)ncn2-c1ccc(CNC(=O)c2nnn(Cc3ccccc3)n2)cc1 [ZSQ-13-36]	150 nM	24 nM	4.31 µM	1.11 µM	99 min	99 min	–	–	–	–	–	–
Cn1nc(C(=O)NCc2ccc(-n3ncc4c(N)ncnc43)cc2)cc1Cc1ccccc1 [ZSQ-15-48]	451 nM	70.9 nM	> 10 µM	6.55 µM	–	–	–	–	–	–	–	–
CNC(=O)c1ccc2c(ccn2-c2ccc(CNC(=O)c3cc(Cc4ccccc4)n(C)n3)cc2)c1 [ZSQ-15-68]	670 nM	115 nM	1.8 µM	0.61 µM	–	–	–	–	–	–	–	–
Cn1nc(C(=O)NCc2ccc(-n3ccc4c(N)nccc43)cc2)cc1Cc1ccccc1 [ZSQ-16-3]	> 10000 nM	361 nM	> 10 µM	2.32 µM	–	–	–	–	–	–	–	–
Nc1ncnc2c1ncn2-c1ccc(CNC(=O)c2cn(Cc3ccccc3)cn2)cc1 [ZSQ-21-13]	39 nM	42.7 nM	–	–	99 min	577 min	–	–	–	–	–	–
Nc1ncnc2c1ncn2-c1ccc(CNC(=O)c2ccc(Cl)n2Cc2ccccc2)cc1 [ZSQ-21-18]	80.6 nM	6.57 nM	–	–	30.1 min	8.6 min	–	–	–	–	–	–
Nc1ncnc2c1ncn2-c1ccc(CNC(=O)c2ccc(F)n2Cc2ccccc2)cc1 [ZSQ-21-30]	1.6 nM	0.0853 nM	0.00741 µM	0.000916 µM	–	–	–	–	–	–	–	–
Cn1nc2c(c1Cc1ccccc1)C(=O)N(Cc1ccc(-n3cnc4c(N)ncnc43)cc1)CC2 [ZSQ-22-96]	2.26 nM	0.203 nM	0.0386 µM	0.00839 µM	–	–	–	–	–	–	–	–
